Consider 22 molecules from patent US20070254882A1, “Sulfamide Derivatives and Pharmaceutical Composition for Upregulation of Lipid Metabolism Comprising Same” (CRYSTAL GENOMICS, INC., priority 2004, published 2007).

The first test has as its target T1, human PPAR α (Homo sapiens, UniProt Q07869).
T1 construct: expressed in transfected cells; host or cells: HepG2 (ATCC HB-8065) or 293T cells (ATCC CRL-1573)
T1 sequence (Q07869 239-466 limits assumed): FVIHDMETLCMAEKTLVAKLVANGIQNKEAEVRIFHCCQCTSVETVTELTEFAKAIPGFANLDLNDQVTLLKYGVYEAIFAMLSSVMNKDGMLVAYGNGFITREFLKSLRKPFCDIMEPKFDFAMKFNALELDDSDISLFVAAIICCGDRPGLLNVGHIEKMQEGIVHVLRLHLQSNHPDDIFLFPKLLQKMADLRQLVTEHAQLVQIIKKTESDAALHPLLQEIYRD
As to the kind of experiment: Exogeneous PPAR α agonist assay (GAL4 DNA binding domain/PPAR α ligand binding domain, luciferase) in 293T cells. The class given is cell-based. Also noted: scale not given here. The conditions noted are these: 25 μM compound, 48 hours, luciferase activity increase relative to the control. How it is done:
(§1) Step 1) Exogeneous PPAR α Agonist Assay
(§2) Cross-activation assay of the compounds of Examples 1 to 134 against human PPAR α was carried out using a DNA construct of PPAR α including its ligand binding domain and GAL4 DNA binding domain (Sher et al., Biochemistry 32, 5598-5604, 1993) to analyze whether any of the compounds binds to the ligand binding domain of PPAR α expressed by the construct to affect the PPAR α activity. When the GAL4 DNA binding domainm which is fused with PPAR α ligand binding domain, binds to UAS (upstream activation sequence) of firefly-luciferase, the luciferase is expressed. Therefore, the effect of each of the compounds of Examples on PPAR α activation can be evaluated by analyzing the activation of luciferase.
(§3) Specifically, 2×10^4 of HepG2 (ATCC HB-8065) or 293T cells (ATCC CRL-1573) were aliquotted into each well of a 96-well plate and cultured for overnight at 37° C. in a CO2 incubator (culture condition: DMEM, 10% FBS and 1% antibiotics).
(§4) The transformation of PPAR α DNA was traced as follows. First, a mixture of the following ingredients in amounts per well; Solution A (Promega) containing 50 ng of full length human PPAR α DNA, 50 ng of firefly-luciferase construct, 5 ng of Renilla-luciferase construct, 1.0 μl of PLUS™ reagent, and 8.3 μl of a serum-free medium containing no antibiotics; was prepared and kept at room temperature for 15 min. Solution B, which contained 0.5 μl of Lipofectamine™ reagent and 9.5 μl of serum-free medium without antibiotics per well, and Solution C, which contained 50 μl of serum-free medium per well), were prepared. Solutions A, B and C were mixed together to prepare lipofectamin-DNA complex, and the mixture was kept at room temperature for 15 min. Single layer of cells on each well of a 96-well plate were washed with serum-free DMEM, 70 μl of lipofectamine-DNA complex prepared above was added thereto, the plate was incubated at 37° C. in a 5% CO2 incubator for 3 hours to transform the cells, and […] of a diluted solution of each of the compounds of Examples 1 to 134 per well was added to each well to a final concentration 25 μM, and incubated at 37° C. in a CO2 incubator for 48 hours. Then, the medium was removed, 50 μl of passive lysis buffer (Promega) was added thereto, and the plate was shook at room temperature for 20 min to lysis cells. 40 μl of Luciferase Assay reagent of Dual Luciferase Kit […] per 20 μl of cell lysis buffer was added to the plate, followed by reacting at 20° C. for 8 seconds, and 40 μl of Stop & Glo reagent (Promega) as a stop solution was added thereto to quench the reaction. The luminescence intensities of F-luciferase and R-luciferase were measured with MicroLumat Plus (Berthord Technology).
Regarding `Cc1ccc(-c2nc(COc3cccc(CN([C@H](C(=O)O)C(C)C)S(N)(=O)=O)c3)c(C)o2)cc1` [Example 2, (S)-3-methyl-2-[N-(sulfamoyl)-N-[3-[(5-methyl-2-p-tolyloxazol-4-yl)methoxy]benzyl]amino]butyric acid], the “Activity at 25 μM Step 1 293T cell” value was found to be 6.
Still for that read-out and setting: then `CCN(CC)S(=O)(=O)N(CC(=O)O)Cc1cccc(OCc2nc(-c3ccc(C(F)(F)F)cc3)oc2C)c1` [Example 7, [N—(N,N-diethylamino)sulfonyl-N-[3-[[2-(4-trifluoromethylphenyl)-5-methyloxazol-4-yl]methoxy]benzyl]amino]acetic acid], with 3.
Same read-out and setting: in the case of `Cc1oc(-c2ccc(C(F)(F)F)cc2)nc1COc1cccc(CN(CC(=O)O)S(=O)(=O)N(C)C(C)C)c1` [Example 8, [N—(N-isopropyl-N-methylamino)sulfonyl-N-[3-[[2-(4-trifluoromethylphenyl)-5-methyloxazol-4-yl]methoxy]benzyl]amino]acetic acid] it was 4; in that of `C=CCN(C)S(=O)(=O)N(CC(=O)O)Cc1cccc(OCc2nc(-c3ccc(C(F)(F)F)cc3)oc2C)c1` [Example 9, [N—(N-allyl-N-methylamino)sulfonyl-N-[3-[[2-(4-trifluoromethylphenyl)-5-methyloxazol-4-yl]methoxy]benzyl]amino]acetic acid], 3.
Still for that read-out and setting: then `Cc1ccc(-c2nc(CCOc3ccc(CN(CC(=O)O)S(=O)(=O)N(C)C)cc3)c(C)o2)cc1` [Example 99, [N—(N,N-dimethylamino)sulfonyl-N-[4-[2-[2-(4-methylphenyl)-5-methyloxazol-4-yl]ethoxy]benzyl]amino]acetic acid], with 2.
Regarding `Cc1ccc(-c2nc(CCOc3ccc(CN(CC(=O)O)S(=O)(=O)NC(C)(C)C)cc3)c(C)o2)cc1` [Example 100, [N—(N-t-butylamino)sulfonyl-N-[4-[2-[2-(4-methylphenyl)-5-methyloxazol-4-yl]ethoxy]benzyl]amino]acetic acid], the “Activity at 25 μM Step 1 293T cell” value is 2.
Take `Cc1oc(-c2ccc(C(F)(F)F)cc2)nc1CCOc1ccc(CN(CC(=O)O)S(=O)(=O)N(C)C)cc1` [Example 103, [N—(N,N-dimethylamino)sulfonyl-N-[4-[2-[2-(4-trifluoromethylphenyl)-5-methyloxazol-4-yl]ethoxy]benzyl]amino]acetic acid]: the “Activity at 25 μM Step 1 293T cell” value was 2.
The same measure, in the same setting: in the case of `Cc1oc(-c2cccs2)nc1CCOc1ccc(CN(CC(=O)O)S(=O)(=O)N(C)C)cc1` [Example 104, [N—(N,N-dimethylamino)sulfonyl-N-[4-[2-[2-(thiophen-2-yl)-5-methyloxazol-4-yl]ethoxy]benzyl]amino]acetic acid] it was 1; in that of `Cc1oc(-c2ccccc2)nc1CCOc1ccc(CN(CC(=O)O)S(=O)(=O)N(C)c2ccccc2)cc1` [Example 105, [N—[(N-methyl-N-phenyl)amino]sulfonyl-N-[4-[2-(2-phenyl-5-methyloxazol-4-yl)ethoxy]benzyl]amino]acetic acid], 2; in that of `Cc1ccc(-c2nc(CCOc3ccc(CN(CC(=O)O)S(=O)(=O)N(C)c4ccccc4)cc3)c(C)o2)cc1` [Example 106, [N—[(N-methyl-N-phenyl)amino]sulfonyl-N-[4-[2-[2-(4-methylphenyl)-5-methyloxazol-4-yl]ethoxy]benzyl]amino]acetic acid], 2.
The same measure, in the same setting: then `Cc1oc(-c2cccs2)nc1CCOc1ccc(CN(CC(=O)O)S(=O)(=O)N(C)c2ccccc2)cc1` [Example 108], with 2.
As to `Cc1oc(-c2ccccc2)nc1CCOc1ccc(CN(CC(=O)O)S(=O)(=O)N(C)c2ccc(Cl)cc2)cc1` [Example 109, [N—[[N-methyl-N-(4-chlorophenyl)]amino]sulfonyl-N-[4-[2-(2-phenyl-5-methyloxazol-4-yl)ethoxy]benzyl]amino]acetic acid], the “Activity at 25 μM Step 1 293T cell” value came out at 3.
The same measure, in the same setting: then `Cc1ccc(-c2nc(CCOc3ccc(CN(CC(=O)O)S(=O)(=O)N(C)c4ccc(Cl)cc4)cc3)c(C)o2)cc1` [Example 110, [N—[[N-methyl-N-(4-chlorophenyl)]amino]sulfonyl-N-[4-[2-[2-(4-methylphenyl)-5-methyloxazol-4-yl]ethoxy]benzyl]amino]acetic acid], with 2.
In the case of `Cc1oc(-c2ccc(C(F)(F)F)cc2)nc1CCOc1ccc(CN(CC(=O)O)S(=O)(=O)N(C)c2ccc(Cl)cc2)cc1` [Example 114, [N—[[N-methyl-N-(4-chlorophenyl)]amino]sulfonyl-N-[4-[2-[2-(4-trifluoromethylphenyl)-5-methyloxazol-4-yl]ethoxy]benzyl]amino]acetic acid], the “Activity at 25 μM Step 1 293T cell” value is on record as 2.
On the same count and under the same terms, then `Cc1oc(-c2cccs2)nc1CCOc1ccc(CN(CC(=O)O)S(=O)(=O)N(C)c2ccc(Cl)cc2)cc1` [Example 115, [N—[[N-methyl-N-(4-chlorophenyl)]amino]sulfonyl-N-[4-[2-[2-(thiophen-2-yl)-5-methyloxazol-4-yl]ethoxy]benzyl]amino]acetic acid], with 2; and `Cc1oc(-c2ccccc2)nc1CCOc1ccc(CN(CC(=O)O)S(=O)(=O)N2CCc3ccccc32)cc1` [Example 116], with 2.
For `Cc1ccc(-c2nc(CCOc3ccc(CN(CC(=O)O)S(=O)(=O)N4CCc5ccccc54)cc3)c(C)o2)cc1` [Example 117, [N-(indolinyl)sulfonyl-N-[4-[2-[2-(4-methylphenyl)-5-methyloxazol-4-yl]ethoxy]benzyl]amino]acetic acid], the “Activity at 25 μM Step 1 293T cell” value was determined as 3.
Regarding `Cc1oc(-c2ccc(C(F)(F)F)cc2)nc1CCOc1ccc(CN(CC(=O)O)S(=O)(=O)N2CCc3ccccc32)cc1` [Example 118, [N-(indolinyl)sulfonyl-N-[4-[2-[2-(4-trifluoromethylphenyl)-5-methyloxazol-4-yl]ethoxy]benzyl]amino]acetic acid], the “Activity at 25 μM Step 1 293T cell” value was 2.
Take `Cc1oc(-c2cccs2)nc1CCOc1ccc(CN(CC(=O)O)S(=O)(=O)N2CCc3ccccc32)cc1` [Example 119, [N-(indolinyl)sulfonyl-N-[4-[2-[2-(thiophen-2-yl)-5-methyloxazol-4-yl]ethoxy]benzyl]amino]acetic acid]: the “Activity at 25 μM Step 1 293T cell” value amounted to 2.
For `Cc1oc(-c2ccccc2)nc1CCOc1ccc(CN(CC(=O)O)S(=O)(=O)N2CCCc3ccccc32)cc1` [Example 120, [N-(1,2,3,4-tetrahydroquinolinyl)sulfonyl-N-[4-[2-(2-phenyl-5-methyloxazol-4-yl)ethoxy]benzyl]amino]acetic acid], the “Activity at 25 μM Step 1 293T cell” value is reported as 2.
Same read-out and setting: then `Cc1ccc(-c2nc(CCOc3ccc(CN(CC(=O)O)S(=O)(=O)N4CCCc5ccccc54)cc3)c(C)o2)cc1` [Example 121, [N-(1,2,3,4-tetrahydroquinolinyl)sulfonyl-N-[4-[2-[2-(4-methylphenyl)-5-methyloxazol-4-yl]ethoxy]benzyl]amino]acetic acid], with 2; and `Cc1oc(-c2ccc(C(F)(F)F)cc2)nc1CCOc1ccc(CN(CC(=O)O)S(=O)(=O)N2CCCc3ccccc32)cc1` [Example 122, [N-(1,2,3,4-tetrahydroquinolinyl)sulfonyl-N-[4-[2-[2-(4-trifluoromethylphenyl)-5-methyloxazol-4-yl]ethoxy]benzyl]amino]acetic acid], with 2.

The target in another test is T1, human PPAR α. The experiment in a line: Exogeneous PPAR α agonist assay (GAL4 DNA binding domain/PPAR α ligand binding domain, luciferase) in HepG2 cells. The class given is cell-based. Conditions: 25 μM compound, 48 hours, luciferase activity increase relative to the control. As for the experimental part:
as §1, §2, §3, §4
As for `Cc1ccc(-c2nc(COc3cccc(CN([C@H](C(=O)O)C(C)C)S(N)(=O)=O)c3)c(C)o2)cc1` [Example 2, (S)-3-methyl-2-[N-(sulfamoyl)-N-[3-[(5-methyl-2-p-tolyloxazol-4-yl)methoxy]benzyl]amino]butyric acid], the “Activity at 25 μM Step 1 HepG2 cell” value came out at 25.
Still for that read-out and setting: then `CCN(CC)S(=O)(=O)N(CC(=O)O)Cc1cccc(OCc2nc(-c3ccc(C(F)(F)F)cc3)oc2C)c1` [Example 7, [N—(N,N-diethylamino)sulfonyl-N-[3-[[2-(4-trifluoromethylphenyl)-5-methyloxazol-4-yl]methoxy]benzyl]amino]acetic acid], with 54.
`Cc1oc(-c2ccc(C(F)(F)F)cc2)nc1COc1cccc(CN(CC(=O)O)S(=O)(=O)N(C)C(C)C)c1` [Example 8, [N—(N-isopropyl-N-methylamino)sulfonyl-N-[3-[[2-(4-trifluoromethylphenyl)-5-methyloxazol-4-yl]methoxy]benzyl]amino]acetic acid]: the “Activity at 25 μM Step 1 HepG2 cell” value is reported as 31.
Same read-out and setting: then `C=CCN(C)S(=O)(=O)N(CC(=O)O)Cc1cccc(OCc2nc(-c3ccc(C(F)(F)F)cc3)oc2C)c1` [Example 9, [N—(N-allyl-N-methylamino)sulfonyl-N-[3-[[2-(4-trifluoromethylphenyl)-5-methyloxazol-4-yl]methoxy]benzyl]amino]acetic acid], with 52.
